Data: ChEMBL document CHEMBL5143605, “Discovery of 4-phenylindolines containing a (5-cyanopyridin-3-yl)methoxy moiety as potent inhibitors of the PD-1/PD-L1 interaction” (Bioorg Med Chem Lett, 2022)

Molecular target: Programmed cell death protein 1/Programmed cell death 1 ligand 1 (Homo sapiens, UniProt Q15116+Q9NZQ7)
Experiment: Inhibition of Tag2-PD1/Tag1-PD-L1 (unknown origin) protein-protein interaction preincubated for 15 mins followed by addition of anti-Tag1-Eu3+ and anti-Tag2-XL665 and measured after 2 hrs by HTRF analysis
Assay type: protein-complex assay

Sequence of Programmed cell death protein 1/Programmed cell death 1 ligand 1 (Q15116 whole entry): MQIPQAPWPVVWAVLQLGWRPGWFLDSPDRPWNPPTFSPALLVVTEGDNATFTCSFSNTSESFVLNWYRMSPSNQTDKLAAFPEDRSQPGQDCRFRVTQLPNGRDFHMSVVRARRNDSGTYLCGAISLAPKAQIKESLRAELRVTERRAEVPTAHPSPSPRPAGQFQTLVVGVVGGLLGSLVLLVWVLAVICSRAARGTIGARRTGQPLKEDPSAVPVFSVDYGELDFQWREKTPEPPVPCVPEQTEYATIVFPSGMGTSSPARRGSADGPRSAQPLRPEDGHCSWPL
Sequence of Programmed cell death protein 1/Programmed cell death 1 ligand 1 (Q9NZQ7 whole entry): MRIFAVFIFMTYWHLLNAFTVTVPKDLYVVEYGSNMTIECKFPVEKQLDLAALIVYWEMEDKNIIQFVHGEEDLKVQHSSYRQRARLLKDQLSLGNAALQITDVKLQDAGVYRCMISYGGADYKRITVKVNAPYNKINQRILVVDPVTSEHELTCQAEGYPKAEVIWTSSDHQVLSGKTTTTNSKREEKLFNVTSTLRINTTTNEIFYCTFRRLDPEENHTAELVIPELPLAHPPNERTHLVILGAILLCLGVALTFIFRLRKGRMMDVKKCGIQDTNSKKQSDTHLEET

Structure (SMILES)	IC50 [nM]
CC(C)(CO)NCc1ccc(C(=O)N2CCc3c(-c4ccccc4)cccc32)cc1OCc1ccnc(C#N)c1	229
N#Cc1cncc(COc2cc(C(=O)N3CCc4c(-c5ccccc5)cccc43)ccc2CN2CCC[C@H]2C(=O)O)c1	626
N#Cc1cncc(COc2cc(C(=O)N3CCc4c(-c5ccccc5)cccc43)ccc2CN2CC[C@H](CO)C2)c1	128
CC(C)(CO)NCc1ccc(S(=O)(=O)N2CCc3c(-c4ccccc4)cccc32)cc1	> 5000
O=C(c1ccc(CNCCO)cc1)N1CCc2c(-c3cccc4[nH]ccc34)cccc21	635
N#Cc1cncc(COc2cc(C(=O)N3CCc4c(-c5ccccc5)cccc43)ccc2CNC2CCOCC2)c1	378
CC(=O)NCCNCc1ccc(S(=O)(=O)N2CCc3c(-c4ccccc4)cccc32)cc1	> 5000
CN(CCO)Cc1ccc(C(=O)N2CCc3c(-c4ccccc4)cccc32)cc1OCc1cncc(C#N)c1	60.1
CC(C)(CO)NCc1ccc(C(=O)N2CCc3c(-c4ccccc4)cccc32)cc1OCc1cncc(C#N)c1	116
O=C(c1ccc(CNCCO)cc1)N1CCc2c(-c3ccc4nccnc4c3)cccc21	> 5000
N#Cc1cncc(COc2cc(C(=O)N3CCc4c(-c5ccccc5)cccc43)ccc2CN2CC[C@H](O)C2)c1	74.6
N#Cc1cncc(COc2cc(C(=O)N3CCc4c(-c5ccccc5)cccc43)ccc2CNCCO)c1	87.3
CC(=O)NCCNCc1ccc(C(=O)N2CCc3c(-c4ccccc4)cccc32)cc1OCc1cncc(C#N)c1	154
N#Cc1cncc(COc2cc(C(=O)N3CCc4c(-c5ccccc5)cccc43)ccc2CN2CC[C@H](C(=O)O)C2)c1	53.2
COc1cc(C(=O)N2CCc3c(-c4ccccc4)cccc32)ccc1CNCCO	161
O=C(c1ccc(CNCCO)cc1)N1CCc2c(-c3ccc4ocnc4c3)cccc21	192
COc1cccc(-c2cccc3c2CCN3C(=O)c2ccc(CNCCO)cc2)n1	> 5000
O=C(c1ccc(CNCCO)cc1)N1CCc2c(-c3cnc4[nH]ccc4c3)cccc21	876
N#Cc1cc(COc2cc(C(=O)N3CCc4c(-c5ccccc5)cccc43)ccc2CNCCO)ccn1	105
COCCNCc1ccc(C(=O)N2CCc3c(-c4ccccc4)cccc32)cc1OCc1cncc(C#N)c1	251
CC(=O)NCCNCc1ccc(C(=O)N2CCc3c(-c4ccccc4)cccc32)cc1OCc1ccnc(C#N)c1	308
N#Cc1cncc(COc2cc(C(=O)N3CCc4c(-c5ccccc5)cccc43)ccc2CN2CC[C@@H](O)C2)c1	124
O=C(c1ccc(CNCCO)cc1)N1CCc2c(-c3ccncc3)cccc21	> 5000
N#Cc1cncc(COc2cc(C(=O)N3CCc4c(-c5ccccc5)cccc43)ccc2CN2CC[C@@H](CO)C2)c1	132
